Test results as given in patent publication US20170290801A1 (Hill's Pet Nutrition, Inc., priority 2009, published 2017).

Assay: in vivo
Design: species or system dogs
Conditions: dog; for AUC0-infinity / AUC(0-inf): po; for AUC(0-inf): AUC0-infinity
Procedure: The control food without ALA is fed throughout the study period. The analytical results of the foods fed in this study are in Table 1. A three period Latin square design was used to create a 3×3 factorial arrangement of treatments with dogs assigned to a group following a planned treatment assignment. […] Pharmacokinetic parameters are calculated using a non-compartmental model and analyzed using non-parametric tests of WinNonlin 4.1 in SAS v9.]. There was a significant effect of dose for all delivery methods (P<0.05). […]

- elimination half life, co-manufactured food compared with capsule: greater
- maximum serum concentrations, effect of delivery method: lower maximum serum concentrations
- total area under the curve, co-manufactured food compared with capsule: greater
- AUC0-infinity (12.5 mg/kg): 92215 ng·min/mL
- AUC(0-inf) (12.5 mg/kg): 1.24 µg·h/mL
- AUC0-infinity (25 mg/kg): 227304 ng·min/mL
- AUC(0-inf) (25 mg/kg): 3.58 µg·h/mL
SMILES: O=C(O)CCCCC1CCSS1 (racemic) [lipoic acid, dl-alpha-lipoic acid]
